Data reported in publication PMC6350249 (The Journal of organic chemistry, 2016).

Key:
[1] = tested on: chloroquine-resistant (W2) strain of Plasmodium falciparum; assay: Antimalarial inhibitory activity, chloroquine-resistant; type: cell-based; settings: P. falciparum W2 strain
[2] = biological target: T1, CH1 domain of p300 and the C-TAD domain of HIF-1α (Homo sapiens, UniProt Q09472); assay: HIF-1α/p300 assay, dose–response version of the screening assay; type: binding; settings: for inhibition of the protein–protein interaction: at 500 μM (high test concentration)
T1 sequence (Q09472 331-417 limits assumed): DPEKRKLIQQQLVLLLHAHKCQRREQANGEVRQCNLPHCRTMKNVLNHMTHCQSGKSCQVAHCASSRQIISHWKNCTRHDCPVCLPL

[3] = tested on: chloroquine-sensitive (D6) strain of Plasmodium falciparum; assay: Antimalarial inhibitory activity, chloroquine-sensitive; type: cell-based; settings: P. falciparum D6 strain
[4] = biological target: T1, CH1 domain of p300 and the C-TAD domain of HIF-1α; settings: earlier report; cited from earlier work

Compound	antimalarial effect (in words) [1]	inhibition of the protein–protein interaction [2]	antimalarial effect (in words) [3]	inhibition of the protein–protein interaction between p300 and HIF-1α (in words) [4]	IC50 [1] [µM]	IC50 [3] [µM]	IC50 ([2]; HIF-1α/p300 assay) [µM]
(+)-(R)-eudistidine C [1a]	significant antimalarial effects	27%	significant antimalarial effects				
COc1ccc(C2(O)N=C3N=CC=C4c5ccccc5N=C2N43)cc1 (stereo not drawn) [compound 2, eudistidine A]	significant antimalarial effects		significant antimalarial effects	inhibited	1.1	1.4	
COc1ccc(C2(c3[nH]c(N)nc3-c3ccc(O)cc3)N=C3N=CC=C4c5ccccc5N=C2N43)cc1 (stereo not drawn) [compound 1, eudistidine C]		approximately 48%					
(−)-(S)-eudistidine C [1b]	significant antimalarial effects		significant antimalarial effects				276
